From patent US11008313B2, “Substituted 1-methyl-1,2,3,4-tetrahydroisoquinoline molecules as PCSK9 allosteric binders” (Merck Sharp & Dohme Corp., priority 2016, dated 2021)
Where “and” joins values, the source holds several entries; their conditions need not be identical. Equal values may be shown once. Read-outs that look alike come from different tables or passages of the source.

What was measured:
PCSK9 [1] = target: T1, PCSK9 (Homo sapiens, UniProt Q8NBP7); experiment: Fluorescence polarization competition binding assay (probe: compound of Example 57); settings: 2 μM PCSK9, 50 nM compound of Example 57 as probe, overnight incubation; read-out: FP IC
T1 sequence (Q8NBP7 153-692): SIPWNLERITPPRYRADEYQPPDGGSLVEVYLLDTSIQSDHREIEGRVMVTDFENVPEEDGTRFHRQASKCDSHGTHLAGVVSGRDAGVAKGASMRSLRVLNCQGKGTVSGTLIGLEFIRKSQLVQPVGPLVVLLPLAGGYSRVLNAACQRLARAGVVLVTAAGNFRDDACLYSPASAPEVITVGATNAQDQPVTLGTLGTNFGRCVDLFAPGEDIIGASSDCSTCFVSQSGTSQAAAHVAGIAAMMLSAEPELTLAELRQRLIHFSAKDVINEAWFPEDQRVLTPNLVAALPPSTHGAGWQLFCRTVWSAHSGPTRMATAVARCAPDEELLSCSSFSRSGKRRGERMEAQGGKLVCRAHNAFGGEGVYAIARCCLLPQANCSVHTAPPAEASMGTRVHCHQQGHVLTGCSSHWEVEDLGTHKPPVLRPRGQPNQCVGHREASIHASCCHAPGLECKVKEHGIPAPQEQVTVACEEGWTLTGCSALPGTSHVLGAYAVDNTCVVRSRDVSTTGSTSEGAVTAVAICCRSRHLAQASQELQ
Summary of the method: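 Competition fluorescence-polarization binding: 2 μM PCSK9 with 50 nM fluorescent probe in 20 mM HEPES pH 7.5, 150 mM NaCl, 1 mM CaCl2, 0.005% P-20, incubated with test compound overnight in the dark. Anisotropy read; % inhibition relative to DMSO wells and probe-without-PCSK9 wells.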

PCSK9 [2] = target: T1, PCSK9; experiment: Differential scanning calorimetry (DSC) assay, direct binding / thermal stabilization of PCSK9; settings: Tm(with compound)−Tm(no compound); 2 μM PCSK9, 300 μM test compound
Summary of the method: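 Thermal stabilization of 2 μM PCSK9 with or without 300 μM compound in 25 mM HEPES pH 7.5, 150 mM NaCl, 1 mM CaCl2, 3.75% DMSO. Sample heated 20–80 °C at 200 °C/hr against buffer reference. Protein Tm derived from each thermogram.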

[3] = target: T2, HEK293 cells stably overexpressing PCSK9 (Homo sapiens, UniProt Q8NBP7); experiment: Protein degradation assay (Western Blot/Sally Sue assay); format: cell-based; settings: 24 hrs compound treatment, serum free DMEM
T2 construct: expressed in transfected cells
Procedure: Samples were run on the Sally Simple Western system from ProteinSimple (San Jose, Calif.) using default assay conditions. Briefly, 5×10^4 HEK293 cells stably overexpressing PCSK9 were seeded into Collagen I coated 96 well plates and allowed to recover overnight at 37° C. with 5% CO2. After 24 hrs of compound treatment in serum free DMEM cell culture medium, cells were washed with PBS and lysed in 100 ul RIPA buffer (Teknova) supplemented with protease inhibitors and subsequently mixed with fluorescent standards as per manufacturer's specifications, followed by denaturation at 95° C. for 5 minutes. Anti-PCSK9 mAb antibody (Abbomax, Cat. No. 601-650) was used for PCSK9 detection. The reported DC50 values represent the effective concentration of compound to lower PCSK9 protein levels, pro and mature, by 50%.

[4] = mature PCSK9 protein level lowered by 50%, read-out: PCSK9 DC50 (Mature)
[5] = pro PCSK9 protein level lowered by 50%, read-out: PCSK9 DC50 (Pro)

Compound | IC50 (PCSK9 [1]) | ΔTm at 300 µM (PCSK9 [2]) [°C] | DSC ΔTm (PCSK9 [2]) [°C] | DC50 [3, 4] [µM] | DC50 [3, 5] [µM]
Cn1nccc1NC(=O)c1ccc(Oc2cc3c(cc2OCC2CCCCO2)CCN[C@]3(C)CC(=O)Nc2nccs2)cc1F (stereo partly drawn) [Example 73, 2-fluoro-4-(((1R)-1-methyl-1-(2-oxo-2-(thiazol-2-ylamino)ethyl)-6-((tetrahydro-2H-pyran-2-yl)methoxy)-1,2,3,4-tetrahydroisoquinolin-7-yl)oxy)-N-(1-methyl-1H-pyrazol-5-yl)benzamide] | 0.632 µM | 6.66 | – | – | –
C[C@]1(CC(=O)Nc2nccs2)NCCc2cc(OCC3CCCCO3)c(Oc3ccc(C(=O)Nc4n[nH]c5ncccc45)c(F)c3)cc21 (stereo partly drawn) [Example 74, 2-fluoro-4-(((1R)-1-methyl-1-(2-oxo-2-(thiazol-2-ylamino)ethyl)-6-((tetrahydro-2H-pyran-2-yl)methoxy)-1,2,3,4-tetrahydroisoquinolin-7-yl)oxy)-N-(1H-pyrazolo[3,4-b]pyridin-3-yl)benzamide] | 0.79 µM | 7.08 | – | – | –
CC(C)(C)c1cc(NC(=O)c2ccc(Oc3cc4c(cc3OCC3CCCCO3)CCN[C@]4(C)CC(=O)Nc3nccs3)cc2F)[nH]n1 (stereo partly drawn) [Example 76, N-(3-(tert-butyl)-1H-pyrazol-5-yl)-2-fluoro-4-(((1R)-1-methyl-1-(2-oxo-2-(thiazol-2-ylamino)ethyl)-6-((tetrahydro-2H-pyran-2-yl)methoxy)-1,2,3,4-tetrahydroisoquinolin-7-yl)oxy)benzamide] | 0.535 µM | 7.92 | – | – | –
C[C@]1(CC(=O)Nc2nccs2)NCCc2cc(OCC3CCCCO3)c(Oc3ccc(C(=O)Nc4n[nH]c5ncccc45)c(F)c3)cc21 (stereo partly drawn) [Example 78, 2-fluoro-4-(((1R)-1-methyl-1-(2-oxo-2-(thiazol-2-ylamino)ethyl)-6-((tetrahydro-2H-pyran-2-yl)methoxy)-1,2,3,4-tetrahydroisoquinolin-7-yl)oxy)-N-(1H-pyrazolo[3,4-b]pyridin-3-yl)benzamide] | 0.604 µM | – | 6.67 | – | –
C[C@]1(CC(=O)Nc2nccs2)NCCc2cc(OCC3CCCCO3)c(Oc3cccc(F)c3)cc21 (stereo partly drawn) [Example 79, 2-((1R)-7-(3-fluorophenoxy)-1-methyl-6-((tetrahydro-2H-pyran-2-yl)methoxy)-1,2,3,4-tetrahydroisoquinolin-1-yl)-N-(thiazol-2-yl)acetamide] | 0.823 µM | 6.76 | – | – | –
C[C@]1(CC(=O)Nc2nccs2)NCCc2cc(OCC3CCCO3)c(Oc3cccc(F)c3)cc21 (stereo partly drawn) [Example 82, 2-((1R)-7-(3-fluorophenoxy)-1-methyl-6-((tetrahydrofuran-2-yl)methoxy)-1,2,3,4-tetrahydroisoquinolin-1-yl)-N-(thiazol-2-yl)acetamide] | 0.721 µM | 7.47 | – | – | –
C[C@]1(CC(=O)Nc2nccs2)NCCc2cc(OCc3ccccn3)c(Oc3cccc(F)c3)cc21 [Example 83, (R)-2-(7-(3-fluorophenoxy)-1-methyl-6-(pyridin-2-ylmethoxy)-1,2,3,4-tetrahydroisoquinolin-1-yl)-N-(thiazol-2-yl)acetamide] | 0.852 µM | 5.2 | – | – | –
C[C@]1(CC(=O)Nc2nccs2)NCCc2cc(OCc3ncccc3F)c(Oc3cccc(F)c3)cc21 [Example 84, (R)-2-(7-(3-fluorophenoxy)-6-((3-fluoropyridin-2-yl)methoxy)-1-methyl-1,2,3,4-tetrahydroisoquinolin-1-yl)-N-(thiazol-2-yl)acetamide] | 0.943 µM | 6.32 | – | – | –
COc1cccc(NC(=O)C[C@@]2(C)NCCc3cc(OCC4CCCCO4)c(Oc4ccc(-c5ccc(C(=O)O)cc5)c(F)c4)cc32)c1 (some centres unmarked) [Example 85] | 0.17 µM | 9.62 | – | – | –
COc1cccc(NC(=O)C[C@@]2(C)NCCc3cc(OCC4CCCCO4)c(Oc4ccc(Br)c(F)c4)cc32)c1 (stereo partly drawn) [Example 86, 2-((1R)-7-(4-bromo-3-fluorophenoxy)-1-methyl-6-((tetrahydro-2H-pyran-2-yl)methoxy)-1,2,3,4-tetrahydroisoquinolin-1-yl)-N-(3-methoxyphenyl)acetamide] | 0.00117 µM | 6.18 | – | – | –
COc1cccc(NC(=O)C[C@@]2(C)NCCc3cc(OCC4CCCCO4)c(Oc4ccc(Br)c(F)c4)cc32)n1 (stereo partly drawn) [Example 87, 2-((1R)-7-(4-bromo-3-fluorophenoxy)-1-methyl-6-((tetrahydro-2H-pyran-2-yl)methoxy)-1,2,3,4-tetrahydroisoquinolin-1-yl)-N-(6-methoxypyridin-2-yl)acetamide] | 0.0014 µM | 6.57 | – | – | –
C[C@]1(CC(=O)Nc2cccnn2)NCCc2cc(OCC3CCCCO3)c(Oc3ccc(Br)c(F)c3)cc21 (stereo partly drawn) [Example 88, 2-((1R)-7-(4-bromo-3-fluorophenoxy)-1-methyl-6-((tetrahydro-2H-pyran-2-yl)methoxy)-1,2,3,4-tetrahydroisoquinolin-1-yl)-N-(pyridazin-3-yl)acetamide] | 0.0016 µM | 5.51 | – | – | –
COC(=O)c1ccc(-c2ccc(Oc3cc4c(cc3OCC3CCCCO3)CCN[C@]4(C)CC(=O)Nc3cccc(OC)c3)cc2F)cc1 (stereo partly drawn) [Example 89, methyl 2′-fluoro-4′-(((1R)-1-(2-((3-methoxyphenyl)amino)-2-oxoethyl)-1-methyl-6-((tetrahydro-2H-pyran-2-yl)methoxy)-1,2,3,4-tetrahydroisoquinolin-7-yl)oxy)-[1,1′-biphenyl]-4-carboxylate] | 0.00276 µM | 5.98 | – | – | –
COc1cccc(NC(=O)C[C@@]2(C)NCCc3cc(OCC4CCCCO4)c(Oc4ccc(-c5ccc(C(=O)O)cc5)c(F)c4)cc32)n1 (stereo partly drawn) [Example 90, 2′-fluoro-4′-(((1R)-1-(2-((6-methoxypyridin-2-yl)amino)-2-oxoethyl)-1-methyl-6-((tetrahydro-2H-pyran-2-yl)methoxy)-1,2,3,4-tetrahydroisoquinolin-7-yl)oxy)-[1,1′-biphenyl]-4-carboxylic acid] | 0.109 µM | 8.59 | – | – | –
C[C@]1(CC(=O)Nc2cccnn2)NCCc2cc(OCC3CCCCO3)c(Oc3ccc(-c4ccc(C(=O)O)cc4)c(F)c3)cc21 (stereo partly drawn) [Example 91, 2′-fluoro-4′-(((1R)-1-methyl-1-(2-oxo-2-(pyridazin-3-ylamino)ethyl)-6-((tetrahydro-2H-pyran-2-yl)methoxy)-1,2,3,4-tetrahydroisoquinolin-7-yl)oxy)-[1,1′-biphenyl]-4-carboxylic acid] | 0.86 µM | 7.19 | – | – | –
C[C@]1(CC(=O)Nc2cccc3[nH]ccc23)NCCc2cc(OCC3CCCCO3)c(Oc3ccc(-c4ccc(C(=O)O)cc4)c(F)c3)cc21 (stereo partly drawn) [Example 92, 4′-(((1R)-1-(2-((1H-indol-4-yl)amino)-2-oxoethyl)-1-methyl-6-((tetrahydro-2H-pyran-2-yl)methoxy)-1,2,3,4-tetrahydroisoquinolin-7-yl)oxy)-2′-fluoro-[1,1′-biphenyl]-4-carboxylic acid] | 0.958 µM | 7.28 | – | – | –
CC(C)Cc1ccc([C@H](C)C(=O)NCCOCCOCCOc2cc3c(cc2Oc2ccc(-c4ccc(C(=O)O)cc4)c(F)c2)[C@@](C)(CC(=O)Nc2nccs2)NCC3)cc1 [Example 93] | 0.188 µM and 0.578 µM | – | – | 4.24 | 6.18
C[C@]1(CC(=O)Nc2nccs2)NCCc2cc(OCCOCCOCCNC(=O)CC34CC5CC(CC(C5)C3)C4)c(Oc3ccc(-c4ccc(C(=O)O)cc4)c(F)c3)cc21 [Example 94, 4-(((R)-6-(2-(2-(2-(2-((3r,5r,7r)-adamantan-1-yl)acetamido)ethoxy)ethoxy)ethoxy)-1-methyl-1-(2-oxo-2-(thiazol-2-ylamino)ethyl)-1,2,3,4-tetrahydroisoquinolin-7-yl)oxy)-2′-fluoro-[1,1′-biphenyl]-4-carboxylic acid] | 0.0769 µM | – | – | 8.52 | 1.36
COC(=O)c1cc(-c2cc3c(cc2OC)CCN[C@]3(C)CC(=O)Nc2nccs2)ccc1F [Example 109, methyl (R)-2-fluoro-5-(6-methoxy-1-methyl-1-(2-oxo-2-(thiazol-2-ylamino)ethyl)-1,2,3,4-tetrahydroisoquinolin-7-yl)benzoate] | 0.664 µM | 6.02 | – | – | –
CC1(CC(=O)Nc2nccs2)NCCc2cc(OCC3CCCCO3)c(-c3ccc(F)c(C(=O)O)c3)cc21 (centres unmarked) [Example 110, 2-fluoro-5-(1-methyl-1-(2-oxo-2-(thiazol-2-ylamino)ethyl)-6-((tetrahydro-2H-pyran-2-yl)methoxy)-1,2,3,4-tetrahydroisoquinolin-7-yl)benzoic acid] | 0.00098 µM | 6.7 | – | – | –
COC(=O)c1cc(-c2cc3c(cc2OCC2CCCCO2)CCNC3(C)CC(=O)Nc2nccs2)ccc1F (centres unmarked) [Example 111, methyl 2-fluoro-5-(1-methyl-1-(2-oxo-2-(thiazol-2-ylamino)ethyl)-6-((tetrahydro-2H-pyran-2-yl)methoxy)-1,2,3,4-tetrahydroisoquinolin-7-yl)benzoate] | 0.00155 µM | 6.27 | – | – | –
